Earlier results in US12054562B2, “Cell-permeable inhibitory agent and methods of use thereof in treatment of cognitive and mood disorders” (priority 2015, dated 2024).

Tests used:
α5GABAA receptor [1] = target: T1, α5GABAA receptor (Homo sapiens, UniProt P18507+P31644); conditions: cited from earlier work
T1 sequence (P31644 32-462): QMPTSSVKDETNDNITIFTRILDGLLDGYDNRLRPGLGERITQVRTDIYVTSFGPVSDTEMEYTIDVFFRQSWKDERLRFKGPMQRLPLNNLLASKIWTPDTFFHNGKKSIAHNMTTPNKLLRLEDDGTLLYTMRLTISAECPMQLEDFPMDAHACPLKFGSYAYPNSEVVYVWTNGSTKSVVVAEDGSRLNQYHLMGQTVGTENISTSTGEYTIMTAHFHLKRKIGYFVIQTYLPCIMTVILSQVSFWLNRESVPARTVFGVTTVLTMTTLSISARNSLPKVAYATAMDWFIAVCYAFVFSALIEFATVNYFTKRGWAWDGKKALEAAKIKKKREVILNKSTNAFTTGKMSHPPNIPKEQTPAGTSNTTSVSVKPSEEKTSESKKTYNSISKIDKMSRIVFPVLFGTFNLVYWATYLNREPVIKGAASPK
T1 sequence (P18507 40-467 limits assumed): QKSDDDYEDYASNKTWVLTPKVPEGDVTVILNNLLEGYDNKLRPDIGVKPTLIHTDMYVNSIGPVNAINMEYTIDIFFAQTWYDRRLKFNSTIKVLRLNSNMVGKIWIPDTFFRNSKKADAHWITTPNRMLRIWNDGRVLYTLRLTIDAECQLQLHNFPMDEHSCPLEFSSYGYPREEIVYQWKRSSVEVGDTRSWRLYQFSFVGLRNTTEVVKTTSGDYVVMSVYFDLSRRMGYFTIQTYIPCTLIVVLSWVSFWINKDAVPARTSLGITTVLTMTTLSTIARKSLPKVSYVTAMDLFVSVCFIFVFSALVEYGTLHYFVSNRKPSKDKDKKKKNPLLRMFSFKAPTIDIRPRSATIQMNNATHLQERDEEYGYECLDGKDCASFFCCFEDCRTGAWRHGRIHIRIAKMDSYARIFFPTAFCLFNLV
T1 sequence (P28472 26-473 partner): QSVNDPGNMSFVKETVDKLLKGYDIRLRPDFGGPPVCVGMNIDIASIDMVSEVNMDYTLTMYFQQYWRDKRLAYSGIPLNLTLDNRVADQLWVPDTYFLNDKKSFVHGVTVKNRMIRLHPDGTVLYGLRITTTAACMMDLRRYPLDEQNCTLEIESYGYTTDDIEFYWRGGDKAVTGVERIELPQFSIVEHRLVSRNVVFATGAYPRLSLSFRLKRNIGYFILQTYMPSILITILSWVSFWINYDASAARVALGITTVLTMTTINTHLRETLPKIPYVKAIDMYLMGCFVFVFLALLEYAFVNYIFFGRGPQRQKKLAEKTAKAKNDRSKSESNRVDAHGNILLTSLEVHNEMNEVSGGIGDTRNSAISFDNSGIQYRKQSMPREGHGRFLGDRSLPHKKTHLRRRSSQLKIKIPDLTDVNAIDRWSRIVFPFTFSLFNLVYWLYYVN

α5GABAA receptor [2] = target: T1, α5GABAA receptor; conditions: cited from earlier work; remark: listed apart in the source
healthy subjects = conditions: cited from earlier work
patients = conditions: cited from earlier work
[3] = target: T2, al subunit-containing GABAA receptors (Homo sapiens, UniProt P14867+P18507); conditions: at high concentrations; cited from earlier work
T2 sequence (P14867 28-456): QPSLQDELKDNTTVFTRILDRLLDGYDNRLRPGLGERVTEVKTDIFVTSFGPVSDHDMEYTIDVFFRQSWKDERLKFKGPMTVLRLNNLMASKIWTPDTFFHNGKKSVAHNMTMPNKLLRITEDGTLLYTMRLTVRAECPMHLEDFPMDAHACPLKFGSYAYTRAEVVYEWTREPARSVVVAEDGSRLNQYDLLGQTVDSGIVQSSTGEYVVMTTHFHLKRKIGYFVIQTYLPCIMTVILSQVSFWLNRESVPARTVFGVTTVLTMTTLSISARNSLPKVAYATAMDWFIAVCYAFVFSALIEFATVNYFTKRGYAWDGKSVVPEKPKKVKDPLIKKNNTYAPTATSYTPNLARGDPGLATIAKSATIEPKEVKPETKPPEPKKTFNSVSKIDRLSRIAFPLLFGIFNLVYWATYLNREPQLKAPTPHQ
T2 sequence (P18507 40-467 limits assumed): T1 sequence (P18507 40-467 limits assumed)
T2 sequence (P28472 26-473 partner): T1 sequence (P28472 26-473 partner)

## CCOC(=O)c1ncn2c1[C@@H]1CCCN1C(=O)c1cc(OC)ccc1-2 [L-655,708]
α5GABAA receptor [1]
  selectivity for α5GABAA receptors: 30-70 fold
α5GABAA receptor [2]
  efficacy for reducing α5GABAA receptor function: relatively low efficacy

## Cc1cc(-c2nnc3c4ccccc4c(OCc4cn(C)nn4)nn23)no1 [α5IA]
Healthy subjects
  ethanol-induced impaired performance: improves
patients
  reason clinical trial was stopped: renal toxicity
[3]
  action on al subunit-containing GABAA receptors: activates
